Data on 1 molecule can be found in ChEMBL document CHEMBL4507319 (2021).

The test system of one assay is LNCaP. The experiment in a line: LNCaP cell line Proliferation assay. It is filed as functional, Homo sapiens. Conditions: time 6 day.
Assay [1] has as its target Tyrosine-protein kinase CSK (Homo sapiens) (UniProt P41240). Briefly: CSK(h) Eurofins kinase panel. Conditions: Compound concentration 1.0 uM.
Assay [2] has as its target Activin receptor type-1-like (Homo sapiens) (UniProt P37023). The experiment in a line: ALK1(h) Eurofins kinase panel. The conditions noted are these: Compound concentration 1.0 uM.
In assay [3] the target is Mitogen-activated protein kinase 10 (Homo sapiens) (UniProt P53779). The experiment in a line: JNK3(h) Eurofins kinase panel. Conditions: Compound concentration 1.0 uM.
Mitogen-activated protein kinase 10 (Homo sapiens), sequence (P53779 whole entry): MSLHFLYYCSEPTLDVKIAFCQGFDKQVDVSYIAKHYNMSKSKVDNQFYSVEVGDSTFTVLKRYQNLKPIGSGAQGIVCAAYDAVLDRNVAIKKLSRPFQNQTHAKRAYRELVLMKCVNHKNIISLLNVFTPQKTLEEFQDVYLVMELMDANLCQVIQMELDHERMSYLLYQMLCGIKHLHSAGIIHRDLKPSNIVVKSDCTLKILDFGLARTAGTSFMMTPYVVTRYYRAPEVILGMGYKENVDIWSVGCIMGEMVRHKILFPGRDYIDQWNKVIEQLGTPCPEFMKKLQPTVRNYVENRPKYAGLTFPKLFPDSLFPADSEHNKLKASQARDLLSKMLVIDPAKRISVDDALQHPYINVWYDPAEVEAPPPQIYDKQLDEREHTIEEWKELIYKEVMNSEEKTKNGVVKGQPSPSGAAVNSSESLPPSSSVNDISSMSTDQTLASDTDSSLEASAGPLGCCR
The target of assay [4] is T1, Tyrosine-protein kinase ZAP-70 (Homo sapiens) (UniProt P43403).
T1 sequence (whole entry): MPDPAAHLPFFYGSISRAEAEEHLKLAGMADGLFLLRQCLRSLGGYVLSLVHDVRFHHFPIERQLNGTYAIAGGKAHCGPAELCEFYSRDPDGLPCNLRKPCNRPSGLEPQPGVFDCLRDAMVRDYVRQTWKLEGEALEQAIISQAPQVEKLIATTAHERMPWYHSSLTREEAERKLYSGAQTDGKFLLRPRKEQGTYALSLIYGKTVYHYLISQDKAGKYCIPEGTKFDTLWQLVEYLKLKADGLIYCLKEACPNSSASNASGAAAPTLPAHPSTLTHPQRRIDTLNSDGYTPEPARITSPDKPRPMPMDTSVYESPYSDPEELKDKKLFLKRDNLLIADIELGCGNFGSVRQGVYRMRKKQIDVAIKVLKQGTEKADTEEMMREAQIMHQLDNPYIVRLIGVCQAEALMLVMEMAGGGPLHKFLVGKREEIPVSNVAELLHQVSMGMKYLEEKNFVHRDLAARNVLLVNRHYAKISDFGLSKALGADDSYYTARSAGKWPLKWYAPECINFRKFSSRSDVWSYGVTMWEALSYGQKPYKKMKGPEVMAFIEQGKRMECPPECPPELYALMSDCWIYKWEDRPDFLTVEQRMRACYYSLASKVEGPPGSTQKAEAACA
The experiment in a line: ZAP-70(h) Eurofins kinase panel. The conditions noted are these: Compound concentration 1.0 uM.

For assay [5], the target named is Focal adhesion kinase 1 (Homo sapiens) (UniProt Q05397). Briefly: FAK(h) Eurofins kinase panel. Conditions: Compound concentration 1.0 uM.
Focal adhesion kinase 1 (Homo sapiens), sequence (Q05397 2-1052 limits assumed): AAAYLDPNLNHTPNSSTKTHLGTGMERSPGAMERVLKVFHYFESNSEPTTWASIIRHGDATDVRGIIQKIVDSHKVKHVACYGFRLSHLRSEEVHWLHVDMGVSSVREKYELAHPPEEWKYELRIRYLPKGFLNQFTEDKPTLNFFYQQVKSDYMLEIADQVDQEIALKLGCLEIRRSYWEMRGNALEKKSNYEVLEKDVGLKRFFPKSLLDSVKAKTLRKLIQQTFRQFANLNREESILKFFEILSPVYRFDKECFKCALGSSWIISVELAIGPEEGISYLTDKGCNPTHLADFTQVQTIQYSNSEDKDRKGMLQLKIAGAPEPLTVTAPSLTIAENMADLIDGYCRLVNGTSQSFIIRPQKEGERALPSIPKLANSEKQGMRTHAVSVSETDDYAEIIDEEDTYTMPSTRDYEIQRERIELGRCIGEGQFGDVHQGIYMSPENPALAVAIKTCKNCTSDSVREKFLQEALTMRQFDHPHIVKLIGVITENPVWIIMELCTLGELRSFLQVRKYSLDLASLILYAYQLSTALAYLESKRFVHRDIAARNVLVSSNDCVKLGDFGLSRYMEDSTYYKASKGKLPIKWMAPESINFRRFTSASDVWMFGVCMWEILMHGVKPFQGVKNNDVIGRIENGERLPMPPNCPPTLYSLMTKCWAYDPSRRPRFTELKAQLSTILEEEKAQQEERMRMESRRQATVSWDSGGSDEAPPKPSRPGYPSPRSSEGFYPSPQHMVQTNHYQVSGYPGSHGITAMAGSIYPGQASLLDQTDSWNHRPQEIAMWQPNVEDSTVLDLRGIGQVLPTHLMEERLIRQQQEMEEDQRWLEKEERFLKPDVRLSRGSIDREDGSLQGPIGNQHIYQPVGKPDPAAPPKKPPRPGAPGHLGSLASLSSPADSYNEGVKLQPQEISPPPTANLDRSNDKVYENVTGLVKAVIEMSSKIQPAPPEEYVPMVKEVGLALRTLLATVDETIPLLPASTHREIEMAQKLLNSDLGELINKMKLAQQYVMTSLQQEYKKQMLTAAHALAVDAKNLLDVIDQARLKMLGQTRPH
In assay [6] the target is Misshapen-like kinase 1 (Homo sapiens) (UniProt Q8N4C8). The experiment in a line: MINK(h) Eurofins kinase panel. Conditions: Compound concentration 1.0 uM.
Misshapen-like kinase 1 (Homo sapiens), sequence (Q8N4C8 whole entry, looked up): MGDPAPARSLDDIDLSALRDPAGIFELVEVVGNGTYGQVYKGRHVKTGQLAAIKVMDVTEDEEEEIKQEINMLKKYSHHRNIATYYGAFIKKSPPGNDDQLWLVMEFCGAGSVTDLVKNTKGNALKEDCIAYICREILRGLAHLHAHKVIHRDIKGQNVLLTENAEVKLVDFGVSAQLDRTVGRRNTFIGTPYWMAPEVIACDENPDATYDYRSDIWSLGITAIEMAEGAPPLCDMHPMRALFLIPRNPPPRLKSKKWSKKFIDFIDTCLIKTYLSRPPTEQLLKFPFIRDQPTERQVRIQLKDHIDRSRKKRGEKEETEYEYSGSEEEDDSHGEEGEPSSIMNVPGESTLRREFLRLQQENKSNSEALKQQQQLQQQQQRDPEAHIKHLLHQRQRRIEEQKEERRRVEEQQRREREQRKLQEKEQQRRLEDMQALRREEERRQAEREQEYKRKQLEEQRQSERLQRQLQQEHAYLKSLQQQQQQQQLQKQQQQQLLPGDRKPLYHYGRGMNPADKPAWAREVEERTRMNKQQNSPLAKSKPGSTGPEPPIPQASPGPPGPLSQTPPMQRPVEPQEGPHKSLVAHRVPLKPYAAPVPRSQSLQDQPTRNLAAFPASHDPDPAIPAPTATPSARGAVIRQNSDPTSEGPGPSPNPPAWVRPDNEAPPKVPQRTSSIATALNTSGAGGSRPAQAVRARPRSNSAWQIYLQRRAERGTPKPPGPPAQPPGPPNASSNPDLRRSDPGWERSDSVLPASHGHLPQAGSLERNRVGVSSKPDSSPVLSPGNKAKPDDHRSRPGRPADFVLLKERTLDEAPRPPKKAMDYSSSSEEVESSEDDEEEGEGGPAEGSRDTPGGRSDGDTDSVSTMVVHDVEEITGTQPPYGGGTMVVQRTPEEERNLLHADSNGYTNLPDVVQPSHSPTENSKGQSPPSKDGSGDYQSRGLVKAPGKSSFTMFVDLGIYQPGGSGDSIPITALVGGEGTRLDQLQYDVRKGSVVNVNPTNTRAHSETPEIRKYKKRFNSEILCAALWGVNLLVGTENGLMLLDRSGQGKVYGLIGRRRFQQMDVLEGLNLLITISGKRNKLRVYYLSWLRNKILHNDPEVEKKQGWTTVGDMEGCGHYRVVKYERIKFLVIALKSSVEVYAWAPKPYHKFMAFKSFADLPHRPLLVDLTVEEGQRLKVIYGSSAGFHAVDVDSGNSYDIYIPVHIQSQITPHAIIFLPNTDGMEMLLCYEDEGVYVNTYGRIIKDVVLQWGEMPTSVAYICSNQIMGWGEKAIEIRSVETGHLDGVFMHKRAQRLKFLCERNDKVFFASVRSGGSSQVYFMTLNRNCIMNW
Assay [7] deals with T2, Serine/threonine-protein kinase ICK (Homo sapiens) (UniProt Q9UPZ9).
T2 sequence (whole entry): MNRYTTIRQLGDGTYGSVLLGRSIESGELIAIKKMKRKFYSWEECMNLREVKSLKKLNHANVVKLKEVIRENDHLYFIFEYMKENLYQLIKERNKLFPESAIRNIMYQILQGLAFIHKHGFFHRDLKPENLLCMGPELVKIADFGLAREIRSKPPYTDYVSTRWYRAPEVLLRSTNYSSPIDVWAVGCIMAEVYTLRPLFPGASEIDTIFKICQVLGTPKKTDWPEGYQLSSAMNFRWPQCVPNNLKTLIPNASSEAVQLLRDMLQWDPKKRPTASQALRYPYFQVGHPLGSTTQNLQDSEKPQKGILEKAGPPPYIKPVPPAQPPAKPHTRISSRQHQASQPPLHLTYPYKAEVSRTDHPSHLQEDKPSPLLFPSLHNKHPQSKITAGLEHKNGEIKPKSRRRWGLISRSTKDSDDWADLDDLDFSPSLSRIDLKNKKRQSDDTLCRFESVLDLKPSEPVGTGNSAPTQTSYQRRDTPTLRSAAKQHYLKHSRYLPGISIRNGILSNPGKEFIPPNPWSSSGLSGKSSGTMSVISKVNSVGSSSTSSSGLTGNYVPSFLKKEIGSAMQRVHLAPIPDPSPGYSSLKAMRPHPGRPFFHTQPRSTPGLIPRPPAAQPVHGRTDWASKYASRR
The experiment in a line: ICK(h) Eurofins kinase panel. The conditions noted are these: Compound concentration 1.0 uM.

The target in assay [8] is Serine/threonine-protein kinase/endoribonuclease IRE1 (Homo sapiens) (UniProt O75460). Briefly: IRE1(h) Eurofins kinase panel. The conditions noted are these: Compound concentration 1.0 uM.
Assay [9] deals with Serine/threonine-protein kinase N2 (Homo sapiens) (UniProt Q16513). The experiment in a line: PRK2(h) Eurofins kinase panel. The conditions noted are these: Compound concentration 1.0 uM.
The target of assay [10] is Fibroblast growth factor receptor 1 (Homo sapiens) (UniProt P11362). Briefly: FGFR1(h) Eurofins kinase panel. The conditions noted are these: Compound concentration 1.0 uM.
Fibroblast growth factor receptor 1 (Homo sapiens), sequence (P11362 22-822 limits assumed): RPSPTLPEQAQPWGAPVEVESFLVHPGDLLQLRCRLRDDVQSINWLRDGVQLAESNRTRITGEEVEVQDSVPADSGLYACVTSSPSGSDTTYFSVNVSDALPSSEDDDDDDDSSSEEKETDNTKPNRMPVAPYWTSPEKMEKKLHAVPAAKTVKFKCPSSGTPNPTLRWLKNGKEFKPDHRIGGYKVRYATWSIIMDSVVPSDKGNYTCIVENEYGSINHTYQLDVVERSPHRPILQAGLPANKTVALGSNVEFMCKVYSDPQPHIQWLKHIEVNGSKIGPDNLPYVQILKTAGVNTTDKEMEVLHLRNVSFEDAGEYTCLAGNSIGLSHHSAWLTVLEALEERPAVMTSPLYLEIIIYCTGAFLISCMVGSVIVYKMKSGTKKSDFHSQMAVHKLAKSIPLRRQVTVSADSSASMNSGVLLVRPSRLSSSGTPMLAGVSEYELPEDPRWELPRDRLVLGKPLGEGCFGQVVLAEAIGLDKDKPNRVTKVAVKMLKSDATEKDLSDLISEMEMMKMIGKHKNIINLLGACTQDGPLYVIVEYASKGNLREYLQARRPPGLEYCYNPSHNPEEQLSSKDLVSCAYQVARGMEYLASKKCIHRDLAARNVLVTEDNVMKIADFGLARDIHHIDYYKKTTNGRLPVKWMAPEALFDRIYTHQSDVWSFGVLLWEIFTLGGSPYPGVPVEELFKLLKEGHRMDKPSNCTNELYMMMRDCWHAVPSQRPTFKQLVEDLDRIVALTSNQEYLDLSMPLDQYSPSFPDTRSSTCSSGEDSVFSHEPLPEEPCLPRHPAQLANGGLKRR
The target of assay [11] is T3, Rhodopsin kinase GRK7 (Homo sapiens) (UniProt Q8WTQ7).
T3 sequence (whole entry): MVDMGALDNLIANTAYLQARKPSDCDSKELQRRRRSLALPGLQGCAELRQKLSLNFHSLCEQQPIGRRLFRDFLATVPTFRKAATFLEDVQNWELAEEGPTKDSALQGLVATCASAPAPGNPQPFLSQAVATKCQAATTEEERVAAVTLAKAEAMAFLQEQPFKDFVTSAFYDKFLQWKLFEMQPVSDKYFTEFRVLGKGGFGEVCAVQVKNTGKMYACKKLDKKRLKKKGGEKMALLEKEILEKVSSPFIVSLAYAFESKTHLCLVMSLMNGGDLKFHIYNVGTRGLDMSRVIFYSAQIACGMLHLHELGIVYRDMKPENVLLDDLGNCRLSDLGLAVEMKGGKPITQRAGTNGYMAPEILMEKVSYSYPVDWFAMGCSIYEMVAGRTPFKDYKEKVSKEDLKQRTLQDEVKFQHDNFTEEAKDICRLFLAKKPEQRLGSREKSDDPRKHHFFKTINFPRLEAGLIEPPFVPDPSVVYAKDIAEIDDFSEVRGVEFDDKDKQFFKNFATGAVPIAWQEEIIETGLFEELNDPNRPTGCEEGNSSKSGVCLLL
The experiment in a line: GRK7(h) Eurofins kinase panel. Conditions: Compound concentration 1.0 uM.

Assay [12] deals with RAC-gamma serine/threonine-protein kinase (Homo sapiens) (UniProt Q9Y243). Briefly: PKBgamma (h) Eurofins kinase panel. The conditions noted are these: Compound concentration 1.0 uM.
Assay [13] deals with T4, Mitogen-activated protein kinase 12 (Homo sapiens) (UniProt P53778).
T4 sequence (whole entry): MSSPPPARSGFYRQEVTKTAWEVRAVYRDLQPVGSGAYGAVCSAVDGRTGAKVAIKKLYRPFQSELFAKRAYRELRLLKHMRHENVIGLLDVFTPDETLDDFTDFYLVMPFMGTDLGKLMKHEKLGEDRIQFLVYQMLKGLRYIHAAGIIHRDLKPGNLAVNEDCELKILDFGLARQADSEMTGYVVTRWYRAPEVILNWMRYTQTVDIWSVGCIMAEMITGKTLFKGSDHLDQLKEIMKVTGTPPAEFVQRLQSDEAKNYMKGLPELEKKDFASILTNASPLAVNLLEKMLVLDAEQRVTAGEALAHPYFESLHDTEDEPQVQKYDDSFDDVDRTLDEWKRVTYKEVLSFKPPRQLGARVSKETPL
Briefly: SAPK3(h) Eurofins kinase panel. The conditions noted are these: Compound concentration 1.0 uM.

In assay [14] the target is Tau-tubulin kinase 2 (Homo sapiens) (UniProt Q6IQ55). The experiment in a line: TTBK2(h) Eurofins kinase panel. The conditions noted are these: Compound concentration 1.0 uM.

Activin receptor type-1-like (Homo sapiens), sequence (P37023 whole entry): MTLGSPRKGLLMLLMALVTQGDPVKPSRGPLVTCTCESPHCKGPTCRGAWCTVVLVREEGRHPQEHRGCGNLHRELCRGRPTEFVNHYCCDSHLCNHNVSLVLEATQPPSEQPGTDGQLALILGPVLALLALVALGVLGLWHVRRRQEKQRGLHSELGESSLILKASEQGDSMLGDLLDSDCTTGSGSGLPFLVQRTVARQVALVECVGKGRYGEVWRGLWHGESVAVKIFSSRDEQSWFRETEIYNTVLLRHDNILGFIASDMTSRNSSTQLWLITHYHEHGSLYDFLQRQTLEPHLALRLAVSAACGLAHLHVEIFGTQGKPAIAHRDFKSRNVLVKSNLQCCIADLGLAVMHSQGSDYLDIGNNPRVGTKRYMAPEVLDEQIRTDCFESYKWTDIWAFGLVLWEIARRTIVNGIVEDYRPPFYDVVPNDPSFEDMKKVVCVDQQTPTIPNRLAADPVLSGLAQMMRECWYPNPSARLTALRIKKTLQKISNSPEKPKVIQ
Tyrosine-protein kinase CSK (Homo sapiens), sequence (P41240 2-450 limits assumed): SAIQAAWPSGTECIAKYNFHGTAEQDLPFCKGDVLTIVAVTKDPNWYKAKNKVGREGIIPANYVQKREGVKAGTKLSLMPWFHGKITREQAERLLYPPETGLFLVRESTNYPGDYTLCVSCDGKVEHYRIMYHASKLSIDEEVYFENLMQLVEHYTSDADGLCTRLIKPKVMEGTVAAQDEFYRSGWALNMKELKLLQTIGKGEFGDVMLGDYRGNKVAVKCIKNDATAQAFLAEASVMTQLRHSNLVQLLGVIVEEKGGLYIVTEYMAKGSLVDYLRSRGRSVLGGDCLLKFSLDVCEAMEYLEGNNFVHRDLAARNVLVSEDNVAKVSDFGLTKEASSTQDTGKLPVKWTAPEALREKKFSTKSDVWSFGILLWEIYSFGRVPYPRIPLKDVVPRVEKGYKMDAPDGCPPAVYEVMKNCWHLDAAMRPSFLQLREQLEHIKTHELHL

Regarding `CCc1ccccc1C(=O)Nc1n[nH]c2c(C)c(F)c(C3C(C#N)=C(C)N(C)C(C)=C3C#N)cc12` [BAY-3827], the “Cell Proliferation IC50” value in the assay with LNCaP is 280 nM. In addition, the % residual kinase activity was 90% in assay [1]; 138% in assay [2]; 72% in assay [3]; 119% in [4]; 84% in assay [5]; 99% in assay [6]. Moreover, the % residual kinase activity in [7] is 99%; in assay [8], 104%; in [9], 93%; in assay [10], 61%; in assay [11], 78%; in assay [12] it was 78%. The % residual kinase activity was 106% in assay [13] and 108% in assay [14].
